Literature values as cited in patent US20250127863A1, “ANTIMICROBIAL PEPTIDE FOR ONYCHOMYCOSIS” (CBMR SCIENTIFIC NANOSCIENCE B.V., priority 2019, published 2025).

Legend:
onychomycosis [1] = details: systemic use; cited from earlier work
onychomycosis [2] = details: topical, specialist setting; after 48 weeks of treatment; cited from earlier work

SMILES | (mycological) cure (onychomycosis [1]) [%] | cure rates (onychomycosis [2])
CN(C/C=C/C#CC(C)(C)C)Cc1cccc2ccccc12 [terbinafine] | 70.9 | –
C=C1CCN([C@H](C)[C@](O)(Cn2cncn2)c2ccc(F)cc2F)CC1 [efinaconazole] | – | 15.2-17.8%
Clc1ccc(C(Cn2ccnc2)OCc2ccsc2Cl)c(Cl)c1 (stereo not drawn) [tioconazole] | – | 22%
